SMILES strings stand for the structures.

In general, melting point refers to the temperature, or range, at which the solid turns liquid. Turning to `CCN(c1ccc(C(=O)O)cc1)c1nc(-c2ccc(NC(=O)c3ccc(C4CCCCC4)cc3)cc2)cs1` [Example 8, 4-(N-(4-(4-(4-cyclohexylbenzoylamino)phenyl)-2-thiazolyl)-N-ethylamino)benzoic acid], the melting point was 250 °C (dec.).
As to `Cc1ccc(OCc2ccccc2)c(-c2csc(N(CCC3CCCCC3)c3ccc(C(=O)O)cc3)n2)c1` [Example 175, 4-(N-(4-(2-benzyloxy-5-methylphenyl)-2-thiazolyl)-N-(2-cyclohexylethyl)amino)benzoic acid], the melting point was in the range of 148 to 150 °C.
Consider `CC(C)(c1ccc(C(=O)O)cc1)c1nc(-c2ccc(NC(=O)c3ccc(N4CCOCC4)cc3)cc2)cs1` [Example 44, 4-(1-methyl-1-(4-(4-(4-morpholinobenzoylamino)phenyl)-2-thiazolyl)ethyl)benzoic acid], for which the melting point was 290 °C (dec.).
The compound `CC(C)N(c1ccc(C(=O)O)cc1)c1nc(-c2ccc(OCc3ccc(C4CCCCC4)cc3)cc2)cs1` [Example 24, 4-(N-(4-(4-(4-cyclohexylbenzyloxy)phenyl)-2-thiazolyl)-N-isopropylamino)benzoic acid] showed a melting point of 238 to 240 °C.
On to `CN(Cc1ccc(C2CCCCC2)cc1)c1ccc(-c2csc(N(C)Cc3ccc(C(=O)O)cc3)n2)cc1.O=S(=O)(O)O`, for which the melting point is 130 °C (dec.).

Values taken from patent US7163952B2, “Azole compound and medicinal use thereof” (Japan Tobacco Inc., priority 2001, dated 2007).
